Measured values published in ChEMBL document CHEMBL1201862, “PubChem BioAssay data set” (2004).
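These data come from cells grown in 96-well plates and exposed to compound for 48 hours at five concentrations. Here, GI50 denotes the concentration required for 50% inhibition of growth.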 The source made the active and inactive calls. Rule as the data show it: active = GI50 up to about 1.1 µM and inactive = higher.

Assays:
Assay in all cases: growth of human tumour cells (NCI), 48 h
[1] = system: SN12C
[2] = system: CCRF-CEM
[3] = system: NCI-H23
[4] = system: SF-295
[5] = system: LXFL 529
[6] = system: K562
[7] = system: SNB-78
[8] = system: SNB-75
[9] = system: HT-29
[10] = system: CAKI-1
[11] = system: OVCAR-8
[12] = system: ACHN
[13] = system: NCI-H460
[14] = system: KM12
[15] = system: DMS-273
[16] = system: SF-268
[17] = system: EKVX
[18] = system: U-251
[19] = system: HOP-62
[20] = system: COLO 205
[21] = system: IGROV-1
[22] = system: SW-620
[23] = system: UO-31
[24] = system: RXF 631
[25] = system: 786-0
[26] = system: LOX IMVI
[27] = system: HCT-15
[28] = system: UACC-257
[29] = system: KM-20L2
[30] = system: UACC-62
[31] = system: MOLT-4
[32] = system: SK-MEL-2
[33] = system: HOP-92
[34] = system: HL-60
[35] = system: HCT-116
[36] = system: SK-OV-3
[37] = system: DMS-114
[38] = system: OVCAR-3
[39] = system: Malme-3M
[40] = system: SF-539
[41] = system: HCC 2998
[42] = system: DLD-1
[43] = system: XF498
[44] = system: RPMI-8226
[45] = system: NCI-H226
[46] = system: RXF 393
[47] = system: M19-MEL
[48] = system: A549
[49] = system: SNB-19
[50] = system: M14
[51] = system: SR
[52] = system: NCI-H522
[53] = system: OVCAR-5
[54] = system: A498
[55] = system: SK-MEL-28
[56] = system: SK-MEL-5
[57] = system: HOP-18
[58] = system: TK-10
[59] = system: OVCAR-4

Q: Which results are given for O=c1cccccc1NCCCCCCCCNc1cccccc1=O?
A: GI50 [1]: > 100 µM (inactive); GI50 [2]: > 100 µM (inactive); GI50 [3]: 6.78 µM (inactive); GI50 [4]: 18.8 µM (inactive); GI50 [5]: 47.9 µM (inactive); GI50 [6]: 7.06 µM (inactive); GI50 [7]: > 100 µM (inactive); GI50 [8]: 32.4 µM (inactive); GI50 [9]: > 100 µM (inactive); GI50 [10]: > 100 µM (inactive); GI50 [11]: > 100 µM (inactive); GI50 [12]: 3.33 µM (inactive); GI50 [13]: 85.7 µM (inactive); GI50 [14]: > 100 µM (inactive); GI50 [15]: 55.7 µM (inactive); GI50 [16]: > 100 µM (inactive); GI50 [17]: 24.9 µM (inactive); GI50 [18]: > 100 µM (inactive); GI50 [19]: > 100 µM (inactive); GI50 [20]: > 100 µM (inactive); GI50 [21]: 94.2 µM (inactive); GI50 [22]: > 100 µM (inactive); GI50 [23]: 35.4 µM (inactive); GI50 [24]: 1.74 µM (inactive); GI50 [25]: > 100 µM (inactive); GI50 [26]: 14.3 µM (inactive); GI50 [27]: > 100 µM; GI50 [28]: > 100 µM (inactive); GI50 [29]: > 100 µM (inactive); GI50 [30]: > 100 µM (inactive); GI50 [31]: 36.1 µM (inactive); GI50 [32]: > 100 µM (inactive); GI50 [33]: 22.9 µM (inactive); GI50 [34]: 3.53 µM (inactive); GI50 [35]: 9.62 µM (inactive); GI50 [36]: > 100 µM (inactive); GI50 [37]: 1.77 µM (inactive); GI50 [38]: 7.59 µM (inactive); GI50 [39]: > 100 µM (inactive); GI50 [40]: > 100 µM (inactive); GI50 [41]: > 100 µM (inactive); GI50 [42]: > 100 µM (inactive); GI50 [43]: 23 µM (inactive); GI50 [44]: 6.56 µM (inactive); GI50 [45]: > 100 µM (inactive); GI50 [46]: > 100 µM (inactive); GI50 [47]: > 100 µM (inactive); GI50 [48]: 39.9 µM (inactive); GI50 [49]: 38.1 µM (inactive); GI50 [50]: > 100 µM (inactive); GI50 [51]: 17.8 µM (inactive); GI50 [52]: 75.3 µM (inactive); GI50 [53]: > 100 µM (inactive)

Q: How did the GI50 [1] turn out when Cn1c(=O)nc2n(-c3ccc(Cl)cc3)c(-c3ccccc3)c(-c3ccccc3)nc-2c1=O was run?
A: 33.6 µM (inactive)

Q: What about the GI50 [2] of the same molecule?
A: 21.9 µM (inactive)

Q: What about the GI50 [3] of the same molecule?
A: 66.2 µM (inactive)

Q: And the GI50 [4]?
A: 30.1 µM (inactive)

Q: What about the GI50 [5] of the same molecule?
A: 27.7 µM (inactive)

Q: And the GI50 [6]?
A: 25.6 µM (inactive)

Q: What about the GI50 [7] of the same molecule?
A: 49.2 µM (inactive)

Q: And the GI50 [54]?
A: 49.3 µM (inactive)

Q: And the GI50 [55]?
A: 25.5 µM (inactive)

Q: What about the GI50 [8] of the same molecule?
A: 23.2 µM (inactive)

Q: And the GI50 [9]?
A: 32.1 µM (inactive)

Q: What about the GI50 [10] of the same molecule?
A: 24.8 µM (inactive)

Q: What about the GI50 [11] of the same molecule?
A: 37.5 µM (inactive)

Q: And the GI50 [12]?
A: 19.9 µM (inactive)

Q: What about the GI50 [13] of the same molecule?
A: 24.7 µM (inactive)

Q: What about the GI50 [14] of the same molecule?
A: 23.8 µM (inactive)

Q: What about the GI50 [15] of the same molecule?
A: 22.6 µM (inactive)

Q: And the GI50 [16]?
A: 23.6 µM (inactive)

Q: What about the GI50 [17] of the same molecule?
A: 47 µM (inactive)

Q: What about the GI50 [18] of the same molecule?
A: 27.5 µM (inactive)

Q: What about the GI50 [19] of the same molecule?
A: 25.3 µM (inactive)

Q: What about the GI50 [20] of the same molecule?
A: 33 µM (inactive)

Q: What about the GI50 [21] of the same molecule?
A: 30.1 µM (inactive)

Q: What about the GI50 [56] of the same molecule?
A: 20.1 µM (inactive)

Q: What about the GI50 [22] of the same molecule?
A: 40.7 µM (inactive)

Q: And the GI50 [23]?
A: 18.4 µM (inactive)

Q: What about the GI50 [24] of the same molecule?
A: 28.3 µM (inactive)

Q: And the GI50 [57]?
A: 57.9 µM (inactive)

Q: And the GI50 [25]?
A: 29.8 µM (inactive)

Q: What about the GI50 [27] of the same molecule?
A: 22.5 µM

Q: And the GI50 [28]?
A: 24.3 µM (inactive)

Q: And the GI50 [29]?
A: 30.2 µM (inactive)

Q: What about the GI50 [30] of the same molecule?
A: 14.5 µM (inactive)

Q: What about the GI50 [31] of the same molecule?
A: 16.5 µM (inactive)

Q: What about the GI50 [32] of the same molecule?
A: 23.6 µM (inactive)

Q: And the GI50 [33]?
A: 16.5 µM (inactive)

Q: And the GI50 [34]?
A: 18.3 µM (inactive)

Q: And the GI50 [58]?
A: 51.2 µM (inactive)

Q: And the GI50 [36]?
A: 40.3 µM (inactive)

Q: And the GI50 [37]?
A: 28.1 µM (inactive)

Q: And the GI50 [38]?
A: 21.7 µM (inactive)

Q: And the GI50 [39]?
A: 28.4 µM (inactive)

Q: And the GI50 [40]?
A: 23 µM (inactive)

Q: And the GI50 [41]?
A: 47.2 µM (inactive)

Q: And the GI50 [42]?
A: 34 µM (inactive)

Q: What about the GI50 [43] of the same molecule?
A: 12.9 µM (inactive)

Q: And the GI50 [44]?
A: 22.1 µM (inactive)

Q: What about the GI50 [45] of the same molecule?
A: 19.2 µM (inactive)

Q: And the GI50 [48]?
A: 31.1 µM (inactive)

Q: What about the GI50 [49] of the same molecule?
A: 32.1 µM (inactive)

Q: What about the GI50 [50] of the same molecule?
A: 20 µM (inactive)

Q: And the GI50 [59]?
A: 29.5 µM (inactive)

Q: And the GI50 [52]?
A: 36.7 µM (inactive)

Q: And the GI50 [53]?
A: 66.8 µM (inactive)

Q: Which results are given for CCOC(=O)C(=Cc1cccnc1C)C(=O)OCC?
A: GI50 [1]: 4.43 µM (inactive); GI50 [2]: 3.93 µM (inactive); GI50 [3]: 4.09 µM (inactive); GI50 [4]: 10.6 µM (inactive); GI50 [5]: 7.57 µM (inactive); GI50 [6]: 3.39 µM (inactive); GI50 [54]: 10.9 µM (inactive); GI50 [55]: 17.5 µM (inactive); GI50 [8]: 3.13 µM (inactive); GI50 [9]: 5.15 µM (inactive); GI50 [10]: 6.21 µM (inactive); GI50 [11]: 5.18 µM (inactive); GI50 [12]: 11.9 µM (inactive); GI50 [13]: 15.6 µM (inactive); GI50 [14]: 3.1 µM (inactive); GI50 [15]: 3.82 µM (inactive); GI50 [16]: 9.89 µM (inactive); GI50 [17]: 16.4 µM (inactive); GI50 [18]: 6.18 µM (inactive); GI50 [19]: 18.8 µM (inactive); GI50 [20]: 5.6 µM (inactive); GI50 [21]: 7.6 µM (inactive); GI50 [56]: 11.8 µM (inactive); GI50 [22]: 5.32 µM (inactive); GI50 [23]: 5.16 µM (inactive); GI50 [24]: 11.9 µM (inactive); GI50 [57]: 9.68 µM (inactive); GI50 [25]: 8.51 µM (inactive); GI50 [26]: 3.71 µM (inactive); GI50 [27]: 3.69 µM; GI50 [28]: 8.09 µM (inactive); GI50 [29]: 3.6 µM (inactive); GI50 [30]: 6.82 µM (inactive); GI50 [31]: 12.6 µM (inactive); GI50 [32]: 4.08 µM (inactive); GI50 [33]: 7.01 µM (inactive); GI50 [34]: 3.78 µM (inactive); GI50 [35]: 5.01 µM (inactive); GI50 [58]: 12.9 µM (inactive); GI50 [36]: 11.3 µM (inactive); GI50 [37]: 13.7 µM (inactive); GI50 [38]: 2.67 µM (inactive); GI50 [39]: 12.2 µM (inactive); GI50 [40]: 6.15 µM (inactive); GI50 [42]: 9.27 µM (inactive); GI50 [43]: 12.6 µM (inactive); GI50 [45]: 31.8 µM (inactive); GI50 [46]: 4.35 µM (inactive); GI50 [47]: 7.91 µM (inactive); GI50 [48]: 15.6 µM (inactive); GI50 [49]: 11.3 µM (inactive); GI50 [50]: 11.2 µM (inactive); GI50 [59]: 11 µM (inactive); GI50 [51]: 3.61 µM (inactive); GI50 [52]: 3.89 µM (inactive); GI50 [53]: 17.9 µM (inactive)
